Data: US7049323B2, “Amidoheterocycles as modulators of the melanocortin-4 receptor” (Bristol-Myers Squibb Company, priority 2003, dated 2006)
pIC50: −log10 of the molar value.

Target: T1, cloned human MC4R receptors (Homo sapiens, UniProt P32245)
T1 construct: expressed in transfected cells; host or cells: Hi5 insect cells or HEK-293 cells (baculovirus/human MC4R receptor construct); membranes
Assay: Melanocortin MC4R membrane binding assay ([125I]NDP-α-MSH competition)
Details: [125I]NDP-α-MSH 0.1 nM, membranes of Hi5 insect cells or HEK-293 cells, 90 minutes at 37° C.
Description: Melanocortin MC4R Binding Assay. […] A membrane binding assay was used to identify competitive ligands of [^125I]NDP-α-MSH binding to cloned human MC4R receptors expressed in Hi5 insect cells or HEK-293 cells transfected by a baculovirus/human MC4R receptor construct. The membrane binding buffer was composed of 25 mM HEPES, pH 7.4, 140 mM NaCl, 1.2 mM MgCl2, 2.5 mM CaCl2, and 0.1% BSA Membrane protein (0.5 μg) and [^125I]-NDP-α-MSH (to a final concentration of 0.1 nM) were added. Competing ligands or a buffer blank were added and incubated for 90 minutes at 37° C. After filtration, the cell membranes were evaluated in a Wallac Microbeta Trilux Scintillation and Luminescence Counter (Model 1450). Dose-response cureves were fitted by […] analyses and IC50 values are calculated using ExcelFit.

T1 sequence (P32245 whole entry): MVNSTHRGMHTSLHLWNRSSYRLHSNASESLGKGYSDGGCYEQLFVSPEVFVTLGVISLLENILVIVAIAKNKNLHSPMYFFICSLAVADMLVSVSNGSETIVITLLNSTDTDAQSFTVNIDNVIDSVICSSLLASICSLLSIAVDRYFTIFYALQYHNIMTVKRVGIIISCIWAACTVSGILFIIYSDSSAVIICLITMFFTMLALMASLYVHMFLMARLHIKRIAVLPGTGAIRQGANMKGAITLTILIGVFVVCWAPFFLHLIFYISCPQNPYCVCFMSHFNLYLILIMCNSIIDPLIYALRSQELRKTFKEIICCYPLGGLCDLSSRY

SMILES	pIC50
NCCC(=O)N[C@H](Cc1ccc(Cl)cc1)C(=O)N1CC[C@H](N(C(=O)c2ccno2)C2CCCCC2)C1 [Example 22]	> 6.60
CC(C)N(C(=O)c1ccco1)[C@H]1CCN(C(=O)[C@@H](Cc2ccc(Cl)cc2)NC(=O)CCN(C)C)C1 [Example 55]	5.00 to 6.00
CC(C)(C)C(=O)N(C1CCCCC1)[C@H]1CCN(C(=O)[C@@H](Cc2ccc(Cl)cc2)NC(=O)CCN)C1 [Example 32]	> 6.60
O=C(N[C@H](Cc1ccc(Cl)cc1)C(=O)N1CCC(N(C(=O)c2ccno2)C2CCCCC2)C1)[C@H]1Cc2ccccc2CN1 (stereo partly shown) [Example 17]	> 6.60
CCCC(=O)N(C1CCCCC1)[C@H]1CCN(C(=O)[C@@H](Cc2ccc(Cl)cc2)NC(=O)CCN)C1 [Example 30]	> 6.60
CC(C)CN(C(=O)c1ccco1)[C@H]1CCN(C(=O)[C@@H](Cc2ccc(Cl)cc2)NC(=O)CCN(C)C)C1 [Example 65]	5.00 to 6.00
CC(C)CC(=O)N(CC(C)C)[C@H]1CCN(C(=O)[C@@H](Cc2ccc(Cl)cc2)NC(=O)CCN)C1 [Example 48]	5.00 to 6.00
NCCC(=O)N[C@H](Cc1ccc(Cl)cc1)C(=O)N1CC[C@@H](N(C(=O)c2ccno2)C2CCCCC2)C1 [Example 23]	5.00 to 6.00
CS(=O)(=O)N(C1CCCCC1)[C@H]1CCN(C(=O)[C@@H](Cc2ccc(Cl)cc2)NC(=O)[C@H]2Cc3ccccc3CN2)C1 [Example 35]	> 6.60
CC(C)CN(C(=O)c1ccco1)[C@H]1CCN(C(=O)[C@@H](Cc2ccc(Cl)cc2)NC(=O)CCN)C1 [Example 47]	5.00 to 6.00
CC(C)C(=O)N(C1CCCCC1)[C@H]1CCN(C(=O)[C@@H](Cc2ccc(Cl)cc2)NC(=O)[C@@H]2CCN2C)C1 [Example 69]	> 6.60
CC(C)N([C@H]1CCN(C(=O)[C@@H](Cc2ccc(Cl)cc2)NC(=O)CCN)C1)S(C)(=O)=O [Example 53]	5.00 to 6.00
CN(C)CCC(=O)N[C@H](Cc1ccc(Cl)cc1)C(=O)N1CC[C@H](N(C2CCCCC2)S(C)(=O)=O)C1 [Example 56]	5.00 to 6.00
CC(C)CC(=O)N(C1CCCC1)[C@H]1CCN(C(=O)[C@@H](Cc2ccc(Cl)cc2)NC(=O)CCN)C1 [Example 51]	6.00 to 6.60
CC(C)C(=O)N(C1CCCCC1)[C@H]1CCN(C(=O)[C@@H](Cc2ccc(Cl)cc2)NC(=O)[C@@H]2CNCCN2)C1 [Example 46]	> 6.60
NCCC(=O)N[C@H](Cc1ccc(Cl)cc1)C(=O)N1CC[C@H](N(C(=O)CC2CCCC2)C2CCCCC2)C1 [Example 33]	> 6.60

SMILES	pIC50
NCCC(=O)N[C@H](Cc1ccc(Cl)cc1)C(=O)N1CC[C@H](N(C(=O)c2cnccn2)C2CCCCC2)C1 [Example 28]	6.00 to 6.60
CC(C)N(C(=O)c1ccco1)[C@@H]1CCN(C(=O)[C@@H](Cc2ccc(Cl)cc2)NC(=O)CCN)C1 [Example 36]	5.00 to 6.00
NCCC(=O)N[C@H](Cc1ccc(Cl)cc1)C(=O)N1CC[C@H](N(C=O)C2CCCCC2)C1 [Example 44]	5.00 to 6.00
CC(=O)N(C1CCCCC1)[C@H]1CCN(C(=O)[C@@H](Cc2ccc(Cl)cc2)NC(=O)CCN)C1 [Example 43]	5.00 to 6.00
COCC(=O)N(C1CCCCC1)[C@H]1CCN(C(=O)[C@@H](Cc2ccc(Cl)cc2)NC(=O)CCN)C1 [Example 31]	6.00 to 6.60
CC(C)N(C(=O)c1ccco1)[C@H]1CCN(C(=O)[C@@H](Cc2ccc(Cl)cc2)NC(=O)[C@H]2Cc3ccccc3CN2)C1 [Example 38]	6.00 to 6.60
CC(C)N([C@H]1CCN(C(=O)[C@@H](Cc2ccc(Cl)cc2)NC(=O)CCN(C)C)C1)S(C)(=O)=O [Example 62]	5.00 to 6.00
CC(C)C(=O)N(C1CCCCC1)[C@H]1CCN(C(=O)[C@@H](Cc2ccc(Cl)cc2)NC(=O)CCN)C1 [Example 45]	> 6.60
CC(C)CN([C@H]1CCN(C(=O)[C@@H](Cc2ccc(Cl)cc2)NC(=O)CCN)C1)S(C)(=O)=O [Example 49]	5.00 to 6.00
CC(C)CC(=O)N(CC(C)C)[C@H]1CCN(C(=O)[C@@H](Cc2ccc(Cl)cc2)NC(=O)CCN(C)C)C1 [Example 66]	5.00 to 6.00
CS(=O)(=O)N(C1CCCCC1)[C@H]1CCN(C(=O)[C@@H](Cc2ccc(Cl)cc2)NC(=O)[C@@H]2CNCCN2)C1 [Example 40]	6.00 to 6.60
Cc1noc(C)c1C(=O)N(C1CCCCC1)[C@H]1CCN(C(=O)[C@@H](Cc2ccc(Cl)cc2)NC(=O)CCN)C1 [Example 34]	> 6.60
CS(=O)(=O)N(C1CCCCC1)[C@H]1CCN(C(=O)[C@@H](Cc2ccc(Cl)cc2)NC(=O)CCN)C1 [Example 39]	6.00 to 6.60
CS(=O)(=O)N(C1CCCC1)[C@H]1CCN(C(=O)[C@@H](Cc2ccc(Cl)cc2)NC(=O)CCN)C1 [Example 50]	5.00 to 6.00
CC(C)C(=O)N(C1CCCCC1)[C@H]1CCN(C(=O)[C@@H](Cc2ccc(Cl)cc2)NC(=O)[C@H]2CCN2C)C1 [Example 68]	6.00 to 6.60
O=C(N[C@H](Cc1ccc(Cl)cc1)C(=O)N1CC[C@@H](N(C(=O)c2ccno2)C2CCCCC2)C1)[C@H]1Cc2ccccc2CN1 [Example 19]	6.00 to 6.60

The remaining lines, values ahead:

pIC50	SMILES
5.00 to 6.00	CN(C)CCC(=O)N[C@H](Cc1ccc(Cl)cc1)C(=O)N1CC(N(C(=O)COc2ccccc2)C2CCCCC2)C1 [Example 13]
6.00 to 6.60	CCCC(=O)N(C1CCCC1)C1CN(C(=O)[C@@H](Cc2ccc(Cl)cc2)NC(=O)CCN(C)C)C1 [Example 1]
6.00 to 6.60	CN(C)CCC(=O)N[C@H](Cc1ccc(Cl)cc1)C(=O)N1CC(N(C(=O)C2CCC2)C2CCCCC2)C1 [Example 7]
6.00 to 6.60	CCCC(=O)N(C1CCCCCC1)C1CN(C(=O)[C@@H](Cc2ccc(Cl)cc2)NC(=O)CCN(C)C)C1 [Example 3]
> 6.60	CC(C)CC(=O)N(C1CCCCC1)C1CN(C(=O)[C@@H](Cc2ccc(Cl)cc2)NC(=O)CCN(C)C)C1 [Example 14]
5.00 to 6.00	NCCC(=O)N[C@H](Cc1ccc(Cl)cc1)C(=O)N1CC[C@H](N(C(=O)c2ccco2)C2CCCCC2)C1 [Example 24]
6.00 to 6.60	CN(C)CCC(=O)N[C@H](Cc1ccc(Cl)cc1)C(=O)N1CC(N(C(=O)Cc2ccccc2)C2CCCCC2)C1 [Example 10]
6.00 to 6.60	CCCCC(=O)N(C1CCCCC1)C1CN(C(=O)[C@@H](Cc2ccc(Cl)cc2)NC(=O)CCN(C)C)C1 [Example 11]
6.00 to 6.60	CN(C)CCC(=O)N[C@H](Cc1ccc(Cl)cc1)C(=O)N1CC(N(C(=O)CC2CCCC2)C2CCCCC2)C1 [Example 8]
> 6.60	NCCC(=O)N[C@H](Cc1ccc(Cl)cc1)C(=O)N1CC[C@H](N(C(=O)c2ccccc2)C2CCCCC2)C1 [Example 27]
6.00 to 6.60	NCCC(=O)N[C@H](Cc1ccc(Cl)cc1)C(=O)N1CC[C@@H](N(C(=O)c2ccccc2)C2CCCCC2)C1 [Example 25]
6.00 to 6.60	CN(C)CCC(=O)N[C@H](Cc1ccc(Cl)cc1)C(=O)N1CC[C@H](N(C(=O)c2ccco2)C2CCCC2)C1 [Example 64]
6.00 to 6.60	CN(C)CCC(=O)N[C@H](Cc1ccc(Cl)cc1)C(=O)N1CC(N(C2CCCCC2)S(C)(=O)=O)C1 [Example 4]
6.00 to 6.60	CN(C)CCC(=O)N[C@H](Cc1ccc(Cl)cc1)C(=O)N1CC(N(C(=O)c2cc3ccccc3s2)C2CCCCC2)C1 [Example 12]
> 6.60	CN(C)CCC(=O)N[C@H](Cc1ccc(Cl)cc1)C(=O)N1CC(N(C(=O)C2CCCC2)C2CCCCC2)C1 [Example 16]
6.00 to 6.60	CN(C)CCC(=O)N[C@H](Cc1ccc(Cl)cc1)C(=O)N1CC(N(C(=O)CC(C)(C)C)C2CCCCC2)C1 [Example 9]
5.00 to 6.00	NCCC(=O)N[C@H](Cc1ccc(Cl)cc1)C(=O)N1CC[C@H](N(C(=O)c2ccco2)C2CCCC2)C1 [Example 52]
5.00 to 6.00	CN(C)CCC(=O)N[C@H](Cc1ccc(Cl)cc1)C(=O)N1CC(N(C(=O)c2ccno2)C2CCCCC2)C1 [Example 6]
5.00 to 6.00	CN(C)CCC(=O)N[C@H](Cc1ccc(Cl)cc1)C(=O)N1CC[C@H](N(C=O)C2CCCCC2)C1 [Example 59]
6.00 to 6.60	CCCCCC(=O)N(C1CCCCC1)C1CN(C(=O)[C@@H](Cc2ccc(Cl)cc2)NC(=O)CCN(C)C)C1 [Example 15]
> 6.60	NCCC(=O)N[C@H](Cc1ccc(Cl)cc1)C(=O)N1CC[C@H](N(C(=O)c2ccoc2)C2CCCCC2)C1 [Example 29]
> 6.60	CCCC(=O)N(C1CCCCC1)C1CN(C(=O)[C@@H](Cc2ccc(Cl)cc2)NC(=O)CCN(C)C)C1 [Example 2]
> 6.60	CC(C)C(=O)N(C1CCCCC1)[C@H]1CCN(C(=O)[C@@H](Cc2ccc(Cl)cc2)NC(=O)CCN(C)C)C1 [Example 60]
> 6.60	CN(C)CCC(=O)N[C@H](Cc1ccc(Cl)cc1)C(=O)N1CC[C@H](N(C2CCCCC2)S(=O)(=O)c2ccccc2)C1 [Example 67]
6.00 to 6.60	CN(C)CCC(=O)N[C@H](Cc1ccc(Cl)cc1)C(=O)N1CC(N(C2CCCCC2)S(=O)(=O)c2ccccc2)C1 [Example 5]
> 6.60	NCCC(=O)N[C@H](Cc1ccc(Cl)cc1)C(=O)N1CC[C@H](N(C(=O)c2ccco2)C2CCCCC2)C1 [Example 26]
